{"source": "patent US20250345446A1", "about": "(Draupnir Bio ApS, priority 2022, published 2025)"}
{"molecular_target": "T1, soluble ectodomain of sortilin-6his (Homo sapiens, UniProt Q99523, V650M)", "T1 construct": "the soluble ectodomain of sortilin-6his is measured by microscale thermophoresis (MST)", "T1 sequence (Q99523 with tags, fused parts or gaps V650M)": "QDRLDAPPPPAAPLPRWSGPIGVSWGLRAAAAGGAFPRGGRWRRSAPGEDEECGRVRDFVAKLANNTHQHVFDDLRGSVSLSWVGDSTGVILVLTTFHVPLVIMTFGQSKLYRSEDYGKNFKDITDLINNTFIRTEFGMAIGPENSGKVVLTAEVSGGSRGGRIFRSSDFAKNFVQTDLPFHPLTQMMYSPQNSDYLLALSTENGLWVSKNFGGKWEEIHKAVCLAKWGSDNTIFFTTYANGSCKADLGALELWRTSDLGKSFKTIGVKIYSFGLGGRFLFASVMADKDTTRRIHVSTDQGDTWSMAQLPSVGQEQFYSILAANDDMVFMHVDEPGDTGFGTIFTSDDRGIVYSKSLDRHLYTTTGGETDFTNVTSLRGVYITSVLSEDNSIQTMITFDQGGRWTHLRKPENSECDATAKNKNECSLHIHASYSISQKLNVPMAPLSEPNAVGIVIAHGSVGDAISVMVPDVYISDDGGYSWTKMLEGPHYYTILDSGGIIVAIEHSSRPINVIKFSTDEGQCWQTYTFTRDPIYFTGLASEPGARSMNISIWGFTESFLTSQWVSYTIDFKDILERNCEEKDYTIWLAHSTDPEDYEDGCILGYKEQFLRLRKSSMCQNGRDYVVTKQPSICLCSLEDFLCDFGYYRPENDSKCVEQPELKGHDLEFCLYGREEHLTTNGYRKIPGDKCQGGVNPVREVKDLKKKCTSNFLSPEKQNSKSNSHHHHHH", "test": "MST binding to soluble ectodomain of sortilin-6his", "settings": "Table 4; small molecule bifunctional compounds; MST", "description": "(§1) At this point the plate was sealed with adhesive strip and placed on an Eppendorf thermomixer to shake at 600 rpm for 3 min before spinning on a Fisherbrand plate-spinner for 15 seconds and further incubation 1 hrs at 19° C. MST was measured on a Monolith NT. Automated (Nanotemper) in standard-treated capillaries at 5% LED-power and high MST-power. Dose-response was extracted from the raw thermographs at 20 sec hot-time and the dissociation constant was estimated by sigmoidal curve fitting in MO. Affinity analysis program (Nanotemper). All experiments were run in duplicates."}
{"smiles": "CC(C)(C)CC[C@H](NC(=O)COc1cccc(Oc2ccc(C(=O)NCCOCCOCCOCCOCc3cn(CCCCCOc4ncc(-c5ccc6c(n5)N(Cc5cccnc5C#N)C(C)(C)C6=O)cn4)nn3)cn2)c1)C(=O)O", "note": "[BF075, (2S)-2-[[2-[3-[[5-[2-[2-[2-[2-[[1-[5-[5-[1-[(2-cyano-3-pyridyl)methyl]-2,2-dimethyl-3-oxo-pyrrolo[2,3-b]pyridin-6-yl]pyrimidin-2-yl]oxypentyl]triazol-4-yl]methoxy]ethoxy]ethoxy]ethoxy]ethylcarbamoyl]-2-pyridyl]oxy]phenoxy]acetyl]amino]-5,5-dimethyl-hexanoic acid]", "KD score, binding to sortilin (Kd)": 0}
{"molecular_target": "T1, soluble ectodomain of sortilin-6his", "test": "MST binding to soluble ectodomain of sortilin-6his", "settings": "Table 4; small molecule bifunctional compounds; MST; read-out: KD score, binding to sortilin (Kd)", "description": "as §1", "units": {"Kd": "nM"}}
{"smiles": "C[C@@H]1CN(c2ncc(-c3ccc4c(n3)N(Cc3cccnc3C#N)C(C)(C)C4=O)cn2)CCN1C(=O)COCCOCCOCCNC(=O)c1cccc(Oc2ccc(C(=O)N[C@@H](CCC(C)(C)C)C(=O)O)cn2)c1", "note": "[BF056, (2S)-2-[[6-[3-[2-[2-[2-[2-[(2R)-4-[5-[1-[(2-cyano-3-pyridyl)methyl]-2,2-dimethyl-3-oxo-pyrrolo[2,3-b]pyridin-6-yl]pyrimidin-2-yl]-2-methyl-piperazin-1-yl]-2-oxo-ethoxy]ethoxy]ethoxy]ethylcarbamoyl]phenoxy]pyridine-3-carbonyl]amino]-5,5-dimethyl-hexanoic acid]", "Kd": "10 to 250"}
{"smiles": "C[C@@H]1CN(c2ncc(-c3ccc4c(n3)N(Cc3cccnc3C#N)C(C)(C)C4=O)cn2)CCN1C(=O)COCCNC(=O)c1cccc(Oc2ccc(C(=O)N[C@@H](CCC(C)(C)C)C(=O)O)cn2)c1", "note": "[BF058, (S)-2-(6-(3-((2-(2-((R)-4-(5-(1-((2-cyanopyridin-3-yl)methyl)-2,2-dimethyl-3-oxo-2,3-dihydro-1H-pyrrolo[2,3-b]pyridin-6-yl)pyrimidin-2-yl)-2-methylpiperazin-1-yl)-2-oxoethoxy)ethyl)carbamoyl)phenoxy)nicotinamido)-5,5-dimethyl hexanoic acid]", "Kd": "1 to 10"}
{"smiles": "CC(C)(C)CC[C@H](NC(=O)c1ccc(Oc2cccc(C(=O)NCCOCCOCCOCCOCCOCCOc3ncc(-c4ccc5c(n4)N(Cc4cccnc4C#N)C(C)(C)C5=O)cn3)c2)nc1)C(=O)O", "note": "[BF059]", "Kd": "< 1"}
{"smiles": "CC(C)(C)CC[C@H](NC(=O)c1ccc(Oc2cccc(C(=O)NCCOCCNc3ncc(-c4ccc5c(n4)N(Cc4cccnc4C#N)C(C)(C)C5=O)cn3)c2)nc1)C(=O)O", "note": "[BF060, (2S)-2-[[6-[3-[2-[2-[[5-[1-[(2-cyano-3-pyridyl)methyl]-2,2-dimethyl-3-oxo-pyrrolo[2,3-b]pyridin-6-yl]pyrimidin-2-yl]amino]ethoxy]ethylcarbamoyl]phenoxy]pyridine-3-carbonyl]amino]-5,5-dimethyl-hexanoic acid]", "Kd": "1 to 10"}
{"smiles": "CC(C)(C)CC[C@H](NC(=O)c1ccc(Oc2cccc(C(=O)NCCOCCOCCOCCOCCNc3ncc(-c4ccc5c(n4)N(Cc4cccnc4C#N)C(C)(C)C5=O)cn3)c2)nc1)C(=O)O", "note": "[BF062, (2S)-2-[[6-[3-[2-[2-[2-[2-[2-[[5-[1-[(2-cyano-3-pyridyl)methyl]-2,2-dimethyl-3-oxo-pyrrolo[2,3-b]pyridin-6-yl]pyrimidin-2-yl]amino]ethoxy]ethoxy]ethoxy]ethoxy]ethylcarbamoyl]phenoxy]pyridine-3-carbonyl]amino]-5,5-dimethyl-hexanoic acid]", "Kd": "1 to 10"}
{"smiles": "C[C@@H]1CN(c2ncc(-c3ccc4c(n3)N(Cc3cccnc3C#N)C(C)(C)C4=O)cn2)CCN1C(=O)COCCNC(=O)COc1cccc(Oc2ccc(C(=O)N[C@@H](CCC(C)(C)C)C(=O)O)cn2)c1", "note": "[BF064, (S)-2-(6-(3-(2-((8-(2-((R)-4-(5-(1-((2-cyanopyridin-3-yl)methyl)-2,2-dimethyl-3-oxo-2,3-dihydro-1H-pyrrolo[2,3-b]pyridin-6-yl)pyrimidin-2-yl)-2-methylpiperazin-1-yl)-2-oxoethoxy)methyl)amino)-2-oxoethoxy)phenoxy)nicotinamido)-5,5-dimethylhexanoic acid]", "Kd": "1 to 10"}
{"smiles": "CC(C)(C)CC[C@H](NC(=O)c1ccc(Oc2cccc(C(=O)NCCOCCOCCOCCOCCOCCNc3ncc(-c4ccc5c(n4)N(Cc4cccnc4C#N)C(C)(C)C5=O)cn3)c2)nc1)C(=O)O", "note": "[BF067, (2S)-2-[[6-[3-[2-[2-[2-[2-[2-[2-[[5-[1-[(2-cyano-3-pyridyl)methyl]-2,2-dimethyl-3-oxo-pyrrolo[2,3-b]pyridin-6-yl]pyrimidin-2-yl]amino]ethoxy]ethoxy]ethoxy]ethoxy]ethoxy]ethylcarbamoyl]phenoxy]pyridine-3-carbonyl]amino]-5,5-dimethyl-hexanoic acid]", "Kd": "< 1"}
{"smiles": "CC(C)(C)CC[C@H](NC(=O)c1ccc(Oc2cccc(C(=O)NCCOCCOCCOc3ncc(-c4ccc5c(n4)N(Cc4cccnc4C#N)C(C)(C)C5=O)cn3)c2)nc1)C(=O)O", "note": "[BF070, (2S)-2-[[6-[3-[2-[2-[2-[5-[1-[(2-cyano-3-pyridyl)methyl]-2,2-dimethyl-3-oxo-pyrrolo[2,3-b]pyridin-6-yl]pyrimidin-2-yl]oxyethoxy]ethoxy]ethylcarbamoyl]phenoxy]pyridine-3-carbonyl]amino]-5,5-dimethyl-hexanoic acid]", "Kd": "1 to 10"}
{"smiles": "CC(C)(C)CC[C@H](NC(=O)COc1cccc(Oc2ccc(C(=O)NCCOCCNc3ncc(-c4ccc5c(n4)N(Cc4cccnc4C#N)C(C)(C)C5=O)cn3)cn2)c1)C(=O)O", "note": "[BF072, (2S)-2-[[2-[3-[[5-[2-[2-[[5-[1-[(2-cyano-3-pyridyl)methyl]-2,2-dimethyl-3-oxo-pyrrolo[2,3-b]pyridin-6-yl]pyrimidin-2-yl]amino]ethoxy]ethylcarbamoyl]-2-pyridyl]oxy]phenoxy]acetyl]amino]-5,5-dimethyl-hexanoic acid]", "Kd": "< 1"}
{"smiles": "Cc1nc2cc(F)c(-c3cnc(OCCCCCn4cc(COCCOCCOCCOCCNC(=O)COc5cccc(Oc6ccc(C(=O)N[C@@H](CCC(C)(C)C)C(=O)O)cn6)c5)nn4)nc3)nc2c(N[C@H](C)c2cc(C#N)ccc2F)c1Cl", "note": "[BF084, (2S)-2-[[6-[3-[2-[2-[2-[2-[2-[[1-[5-[5-[7-chloro-8-[[(1R)-1-(5-cyano-2-fluoro-phenyl)ethyl]amino]-3-fluoro-6-methyl-1,5-naphthyridin-2-yl]pyrimidin-2-yl]oxypentyl]triazol-4-yl]methoxy]ethoxy]ethoxy]ethoxy]ethylamino]-2-oxo-ethoxy]phenoxy]pyridine-3-carbonyl]amino]-5,5-dimethyl-hexanoic acid]", "Kd": "1 to 10"}
{"smiles": "Cc1nc2cc(F)c(-c3cnc(OCCOCCOCCOCCOCCOCCOCCNC(=O)COc4cccc(Oc5ccc(C(=O)N[C@@H](CCC(C)(C)C)C(=O)O)cn5)c4)nc3)nc2c(N[C@H](C)c2cc(C#N)ccc2F)c1Cl", "note": "[BF085, (2S)-2-[[6-[3-[2-[2-[2-[2-[2-[2-[2-[2-[5-[7-chloro-8-[[(1R)-1-(5-cyano-2-fluoro-phenyl)ethyl]amino]-3-fluoro-6-methyl-1,5-naphthyridin-2-yl]pyrimidin-2-yl]oxyethoxy]ethoxy]ethoxy]ethoxy]ethoxy]ethoxy]ethylamino]-2-oxo-ethoxy]phenoxy]pyridine-3-carbonyl]amino]-5,5-dimethyl-hexanoic acid]", "Kd": "1 to 10"}
{"smiles": "Cc1nc2cc(F)c(-c3cnc(OCCOCCn4cc(COCC(=O)N5CC(OCCNC(=O)COc6cccc(Oc7ccc(C(=O)N[C@@H](CCC(C)(C)C)C(=O)O)cn7)c6)C5)nn4)nc3)nc2c(N[C@H](C)c2cc(C#N)ccc2F)c1Cl", "note": "[BF088, (2S)-2-[[6-[3-[2-[2-[1-[2-[[1-[2-[2-[5-[7-chloro-8-[[(1R)-1-(5-cyano-2-fluoro-phenyl)ethyl]amino]-3-fluoro-6-methyl-1,5-naphthyridin-2-yl]pyrimidin-2-yl]oxyethoxy]ethyl]triazol-4-yl]methoxy]acetyl]azetidin-3-yl]oxyethylamino]-2-oxo-ethoxy]phenoxy]pyridine-3-carbonyl]amino]-5,5-dimethyl-hexanoic acid]", "Kd": "1 to 10"}
{"smiles": "Cc1nc2cc(F)c(-c3cnc(OCCN4CC(n5cc(COCC(=O)N6CC(OCCNC(=O)COc7cccc(Oc8ccc(C(=O)N[C@@H](CCC(C)(C)C)C(=O)O)cn8)c7)C6)nn5)C4)nc3)nc2c(N[C@H](C)c2cc(C#N)ccc2F)c1Cl", "note": "[BF089, (2S)-2-[[6-[3-[2-[2-[1-[2-[[1-[1-[2-[5-[7-chloro-8-[[(1R)-1-(5-cyano-2-fluoro-phenyl)ethyl]amino]-3-fluoro-6-methyl-1,5-naphthyridin-2-yl]pyrimidin-2-yl]oxyethyl]azetidin-3-yl]triazol-4-yl]methoxy]acetyl]azetidin-3-yl]oxyethylamino]-2-oxo-ethoxy]phenoxy]pyridine-3-carbonyl]amino]-5,5-dimethyl-hexanoic acid]", "Kd": "< 1"}
{"smiles": "Cc1nc2cc(F)c(-c3cnc(OCCN4CCC(n5cc(COCC(=O)N6CCC(OCCNC(=O)COc7cccc(Oc8ccc(C(=O)N[C@@H](CCC(C)(C)C)C(=O)O)cn8)c7)CC6)nn5)CC4)nc3)nc2c(N[C@H](C)c2cc(C#N)ccc2F)c1Cl", "note": "[BF090, (2S)-2-[[6-[3-[2-[2-[[1-[2-[[1-[1-[2-[5-[7-chloro-8-[[(1R)-1-(5-cyano-2-fluoro-phenyl)ethyl]amino]-3-fluoro-6-methyl-1,5-naphthyridin-2-yl]pyrimidin-2-yl]oxyethyl]-4-piperidyl]triazol-4-yl]methoxy]acetyl]-4-piperidyl]oxy]ethylamino]-2-oxo-ethoxy]phenoxy]pyridine-3-carbonyl]amino]-5,5-dimethyl-hexanoic acid]", "Kd": "< 1"}
{"smiles": "C[C@@H]1CN(c2ncc(-c3ccc4c(n3)N(Cc3cccnc3C#N)C(C)(C)C4=O)cn2)CCN1C(=O)Cn1cc(COCCOCCOCCOCCOCCOc2cccc(Oc3ccc(C(=O)N[C@@H](CCC(C)(C)C)C(=O)O)cn3)c2)nn1", "note": "[BF098, (2S)-2-[[6-[3-[2-[2-[2-[2-[2-[[1-[2-[(2R)-4-[5-[1-[(2-cyano-3-pyridyl)methyl]-2,2-dimethyl-3-oxo-pyrrolo[2,3-b]pyridin-6-yl]pyrimidin-2-yl]-2-methyl-piperazin-1-yl]-2-oxo-ethyl]triazol-4-yl]methoxy]ethoxy]ethoxy]ethoxy]ethoxy]ethoxy]phenoxy]pyridine-3-carbonyl]amino]-5,5-dimethyl-hexanoic acid]", "Kd": "< 1"}
